Data set [1] deals with HIV (HTLV-IIIB strain). Briefly: MTT assay, MT-4 cells infected with HIV. Format: cell-based. As to conditions: 5 days, inhibits 50% of cell damage caused by virus. How it is done: The inhibitory effects of each anti-human immunodeficiency virus active substance against human immunodeficiency virus have been determined by MTT assay described below.
(1) Human T cell strain Molt-4 clone 8 persistently infected HIV (HTLV-IIIB strain) was cultivated in RPMI-1640 medium supplemented with 10% fatal bovine serum, and supernatant was filtered, measured RT activity, and stored at −80° C. On the other hand, each human anti-immunodeficiency virus active substance was diluted to fixed concentration in culture medium, they were plated to 96-well microtiter plate. Subsequently, 100 μL (3.5×10^4 cells) of MT-4 cell suspension was plated to 96-well microtiter plate, and then above mentioned supernatant containing HIV, which was diluted by culture medium, was added 50 μL (60 pfu (plaque forming unit.)) to 96-well microtiter plate.
(2) After cultivation at 37° C. for 5 days in CO2 incubator, into all well was added 30 μL per well 3-(4,5-[…])-2,5-diphenyltetrazolium bromide (MTT) 5 mg/mL) and PBS, and then incubated for 1 h.
In this time, alive cells reduced MTT and formazan was precipitated, therefore, 150 μL of cell supernatants were removed from all wells, and then 150 μL of lysate (10% triton X-100 and 0.4% (v/v) HCl-containing isopropanol) was added, and formazan was eluated on a plate shaker.
On the technique in general: Tetrazolium dyes change colour on reduction, which living cells bring about.

For data set [2], the target named is HIV-1 integrase (Human immunodeficiency virus type 1 group M subtype B, UniProt P12497). Briefly: HIV-1 integrase inhibition assay (microtiter plate, substrate/target DNA).
Experimental: Substrate DNA and target DNA, which sequences were indicated below, were synthesized by Amersham Pharmacia Biotech and dissolved in KTE buffer (composition: 100 mM KCl, 1 mM EDTA, 10 mM Tris-HCl (pH 7.6)) at concentration of 2 pmol/μL and 5 pmol/μL, respectively. The DNA solutions were annealed with each complement by slowly cooling after heating.
(2) Calculations of the percent inhibitions (the IC50 values of test compounds)
Streptavidin, obtained from Vector Laboratories, was dissolved in 0.1 M carbonate buffer (composition: 90 mM Na2CO3, 10 mM NaHCO3) at concentration of 40 μg/mL. After coating each well of microtiter plates (obtained from NUNC) with 50 μL of the above solution at 4° C. over night, each well was washed twice with PBS (composition: 13.7 mM NaCl, 0.27 mM KCl, 0.43 mM Na2HPO4, 0.14 mM KH2PO4) and blocked with 300 μL of 1% skim milk in PBS for 30 min. Additionally, each well was washed twice with PBS and added 50 μL of substrate DNA solution (2 pmol/μL). The microtiter plates were kept at room temperature for 30 min. Then, each well was washed twice with PBS and once with H2O.
Subsequently, in the each well prepared above were added 45 μL of the reaction buffer prepared from 12 μL of the buffer (composition: 150 mM MOPS (pH 7.2), 75 mM MnCl2, 50 mM 2-mercaptoethanol, 25% glycerol, 500 μg/mL bovine serum albumin-fraction V), 1 μL of target DNA (5 pmol/μL), and 32 μL of the distilled water. Additionally, 6 μL of either a test compound in DMSO or DMSO for positive control(PC) was mixed with the above reaction buffer, then 9 μL of an integrase solution (30 pmol) was added and mixed well. In the well of negative control (NC) was added 9 μL of the integrase dilution buffer (composition: 20 mM MOPS (pH7.2), 400 mM potassium glutamate, 1 mM EDTA, 0.1% NP-40, 20% glycerol, 1 mM DTT, 4M urea).
The microtiter plates were incubated at 30° C. for 1 hour. The reaction solution was removed and each well was washed twice with PBS. Subsequently, each well of the microtiter plates was filled with 100 μL of anti-digoxigenin antibody labeled with alkaline phosphatase (Sheep Fab fragment: obtained from Boehringer) and incubated at 30° C. for 1 hour. Then, each well was washed twice with 0.05% Tween20 in PBS and once with PBS. Next, 150 μL of the Alkaline phosphatase reaction buffer (composition: 10 mM p-Nitrophenylphosphate (obtained from Vector Laboratories), 5 mM MgCl2, 100 mM NaCl, 100 mM Tris-HCl (pH 9.5))was added in each well. […] The optical density (OD) at 405 nm of each well was measured and the percent inhibition was determined by the following expression.
The percent inhibition (%)=100[1-{(C abs.−NC abs.)/(PC abs.−NC abs.)}]
C abs.; the OD of the well of the compounds
NC abs.: the OD of the negative control (NC)
PC abs.: the OD of the positive control (PC)
IC50(μg/mL)=x-{(X-50)(x-y)/(X-Y)}
Setting [3] is: Human immunodeficiency virus 1, MT4, 120 h, read-out: EC50.

Read-outs that look alike come from different tables or passages of the source.

Turning to “5-[(:3,5-dichlorophenyl)thio]-4-(1-methylethyl)-1-(4-pyridynylmethyl)-1H-imidazole-2-methanol carbamate [Capravirine]”, the EC50 (commonly the midpoint of the concentration-response curve) in data set [1] is 0.0014 µg/mL.
As for `Cc1c(O)cccc1C(=O)N[C@@H](CSc1ccccc1)[C@H](O)CN1C[C@H]2CCCC[C@H]2C[C@H]1C(=O)NC(C)(C)C` (relative stereo) [Nelfinavir, [3S-[2(2S*,3S*),3α,4aβ,8aβ]]-N-(1,1-dimethylethyl)-decahydro-2-[2-hydroxy-3-[(3-hydroxy-2-methylbenzoyl)amino]-4-(phenylthio)butyl]-3-isoquinolinecarboxamide], the half-maximal effective concentration (EC50) in data set [1] (setting [3]) stood at 0.01 µg/mL.
Same read-out and setting: the figure for `CC(C)c1nc(CN(C)C(=O)N[C@H](C(=O)N[C@@H](Cc2ccccc2)C[C@H](O)[C@H](Cc2ccccc2)NC(=O)OCc2cncs2)C(C)C)cs1` (relative stereo) [Ritonavir, [5S-(5R*,8R*,10R*,11R*)]-10-hydroxy-2-methyl-5-(1-methylethyl)-1-[2-(1-methylethyl)-4-thiazolyl]-3,6-dioxo-8,10-bis(phenylmethyl)-2,4,7,12-tetraazatridecane-13-hydroxy acid 5-thiazolylmethyl ester] is 0.026 µg/mL; for `Nc1nc(NC2CC2)c2ncn([C@H]3C=C[C@@H](CO)C3)c2n1` [Abacavir] it is 0.63 µg/mL.
Turning to `O=C(C=C(O)c1nn[nH]n1)c1ccc(Cc2ccc(F)cc2)o1` [Compound I-3, 1-[5-(4-Fluorobenzyl)furan-2-yl]-3-hydroxy-3-(2H-tetrazol-5-yl)propenone], the melting point (as a rule, the temperature, or range, at which the solid turns liquid) lay in the range of 121 to 123 °C. Besides, the concentration for half-maximal inhibition (IC50) (in general, the point on the concentration scale where inhibition reaches its midpoint) in data set [2] is 1.27 µM.
The like results for `O=C(C=C(O)c1nn[nH]n1)c1occc1Cc1ccc(F)cc1` [Compound I-11, 1-[3-(4-Fluorobenzyl)furan-2-yl]-3-hydroxy-3-(2H-tetrazol-5-yl)propenone] were, in that order, 171 to 174 °C and 1.34 µM.
On the same counts, the results for `O=C(C=C(O)c1nc[nH]n1)c1occc1Cc1ccc(F)cc1` [Compound I-12, 1-[3-(4-Fluorobenzyl)furan-2-yl]-3-hydroxy-3-(1H-1,2,4-triazol-3-yl)propenone] are 221 to 223 °C and 1.37 µM.
The molecule `CCCn1cc(Cc2ccc(F)cc2)c(C(=O)C=C(O)c2nc[nH]n2)c1` [Compound I-17, 1-[[4-(4-Fluorobenzyl)-1-propyl]pyrrol-3-yl]-3-hydroxy-3-(1H-1,2,4-triazol-3-yl)propenone] came in with a melting point of 210 to 211 °C. In addition, the IC50 in data set [2] is 4.51 µM.
In turn, `O=C(C=C(O)c1nc[nH]n1)c1c[nH]cc1Cc1ccc(F)cc1` [Compound I-19, 1-[4-(4-fluorobenzyl)pyrrol-3-yl]-3-hydroxy-3-(1H-1,2,4-triazol-3-yl)propenone] came in with a melting point of 210 to 213 °C. The IC50 in data set [2] is 2.02 µM.
In turn, `O=C(C=C(O)c1nn[nH]n1)c1ccoc1Cc1ccc(F)cc1` [Compound I-20, 1-[2-(4-Fluorobenzyl)furan-3-yl]-3-hydroxy-3-(2H-tetrazol-5-yl)propenone] had a melting point of 150 to 153 °C. Moreover, the IC50 in data set [2] was 1.02 µM.
On the same counts, the results for `O=C(C=C(O)c1nn[nH]n1)c1cn(S(=O)(=O)c2ccccc2)cc1CCc1ccccc1` [Compound I-21, 1-[[1-Benzenesulfonyl-4-(2-phenylethyl)]pyrrol-3-yl]-3-hydroxy-3-(2H-tetrazol-5-yl)propenone] are 178 to 181 °C and 1.2 µM.
As to `O=C(C=C(O)c1nn[nH]n1)c1c[nH]cc1CCc1ccccc1` [Compound I-22, 3-Hydroxy-1-[(4-(2-phenylethyl))pyrrol-3-yl]-3-(2H-tetrazol-5-yl)propenone], the melting point is 228 to 230 °C. The molecule also showed an IC50 in data set [2] of 1.91 µM.
Molecule `O=C(C=C(O)c1nc[nH]n1)c1ccoc1Cc1ccc(F)cc1` [Compound I-25, 1-[2-(4-Fluorobenzyl)furan-3-yl]-3-hydroxy-3-(1H-1,2,4-triazol-3-yl)propenone] showed a melting point of 144 to 147 °C. Moreover, in data set [2], the half-maximal inhibitory concentration (IC50) was 1.53 µM.
On the same counts, the results for `O=C(C=C(O)c1nc[nH]n1)c1cc(C(=O)O)n(Cc2ccccc2)c1` [Compound I-29, 1-[(1-Benzyl-5-carboxy)pyrrol-3-yl]-3-hydroxy-3-(1H-1,2,4-triazol-3-yl)propenone] are 264 to 265 °C and 2.96 µM.
On the same counts, the results for `O=C(C=C(O)c1ccccn1)c1ccc(Cc2ccc(F)cc2)o1` [Compound I-46, 1-[5-(4-Fluorobenzyl)furan-2-yl]-3-hydroxy-3-(pyridin-2-yl)propenone] are 84 to 85 °C and 1.36 µM.
As for `O=C(C=C(O)c1ncccn1)c1ccc(Cc2ccc(F)cc2)o1` [Compound I-47, 1-[5-(4-Fluorobenzyl)furan-2-yl]-3-hydroxy-3-(pyrimidin-2-yl)propenone], the IC50 in data set [2] was 1.08 µM.
Take `O=C(C=C(O)c1ccccn1)c1cnc(Cc2ccc(F)cc2)o1` [Compound I-50, 1-[2-(4-Fluorobenzyl)oxazol-5-yl]-3-hydroxy-3-(pyridin-2-yl)propenone]: the melting point is 108 to 109 °C. The molecule also showed an IC50 in data set [2] of 1.23 µM.
The like results for `O=C(C=C(O)c1ncccn1)c1cnc(Cc2ccc(F)cc2)o1` [Compound I-51, 1-[2-(4-Fluorobenzyl)oxazol-5-yl]-3-hydroxy-3-(pyrimidin-2-yl)propenone] were, in that order, 97 to 100 °C and 1.48 µM.
For `CC(C)Nc1cccnc1N1CCN(C(=O)c2cc3cc(NS(C)(=O)=O)ccc3[nH]2)CC1` [Delavirdine, 1-[5-methanesulfonamideindolyl-2-carbonyl]-4-[3-(1-methylethylamino)-2-pyridyl]piperadine], the EC50 in data set [1] (setting [3]) amounted to 0.012 µg/mL.
Take `O=c1[nH]cnc2c1ncn2C1CCC(CO)O1` (stereo not shown) [Didanosine, 2′,3′-dideoxyinosine]: the EC50 in data set [1] (setting [3]) came out at 0.64 µg/mL.
Take `O=C1Nc2ccc(Cl)cc2C(C#CC2CC2)(C(F)(F)F)O1` [Efavirenz, (S)-(−)-6-chloro-4-(chloropropylethynyl)-1,4-dihydro-4-(trifluoromethyl)-2H-3,1-benzoxazin-2-one]: in data set [1] (setting [3]), the EC50 was determined as 0.00058 µg/mL.
Still for that read-out and setting: the figure for `CCOCn1c(Cc2ccccc2)c(C(C)C)c(=O)[nH]c1=O` [Emivirine, 6-benzyl-1-(ethoxymethyl)-5-isopropyluracil] is 0.0045 µg/mL; for `CC(C)(C)NC(=O)[C@@H]1CN(Cc2cccnc2)CCN1CC(O)C[C@@H](Cc1ccccc1)C(=O)N[C@H]1c2ccccc2C[C@H]1O` (stereo partly drawn) [Indinavir, [1(1S,2R),5(s)]-2,3,5-trideoxy-N-(2,3-dihydro-2-hydroxy-1H-inden-1-yl)-5-[2-{[(1,1-dimethylethyl)amino]carbonyl}-4-(3-pyridinylmethyl)-1-piperadinyl]-2-(phenylmethyl)-D-erythro-pentonamide] it is 0.014 µg/mL.
Take `Cc1ccnc2c1NC(=O)c1cccnc1N2C1CC1` [Nevirapine]: the EC50 in data set [1] (setting [3]) was 0.02 µg/mL.
The same measure, in the same setting: the figure for `CC(C)(C)NC(=O)[C@@H]1C[C@@H]2CCCC[C@@H]2CN1C[C@@H](O)[C@H](Cc1ccccc1)NC(=O)[C@H](CC(N)=O)NC(=O)c1ccc2ccccc2n1` [Saquinavir, N-tert-butyl-decahydro-2-[2(R)-hydroxy-4-phenyl-3(S)-{[N-(2-quinolylcarbony)-L-asparginyl]amino}butyl]-(4aS,8aS)-isoquinoline-3(S)-carboxamide] is 0.0037 µg/mL.
Still for that read-out and setting: the figure for `Nc1ccn([C@H]2CC[C@@H](CO)O2)c(=O)n1` [Zalcitabine, 2′,3′-dideoxycytidine] is 0.017 µg/mL.
Consider “(±)-α-[(2-acetyl-5-methylphenyl)amino]-2,6-dichlorobenzeneacetomide [Loviride]”, for which the EC50 in data set [1] came out at 0.011 µg/mL.

(Values after patent publication US20030171406A1, “Medicinal compositions containing propenone derivatives” (priority 2000, published 2003).)
